Values quoted from earlier work, collected in PubChem BioAssay AID1259410 (Chemical Carcinogenesis Research Information System (CCRIS), 2018).

System: rodent tumor promotion studies, tumor incidence
Experiment: CCRIS tumor promotion studies
From the text: The CCRIS database contains chemical records with carcinogenicity, mutagenicity, tumor promotion, and tumor inhibition test results. It was developed by the National Cancer Institute (NCI). Data are derived from studies cited in primary journals, current awareness tools, NCI reports, and other sources. Test results have been reviewed by experts in carcinogenesis and mutagenesis.
CCRIS provides historical information from the years 1985 - 2011. It is no longer updated.
This is an archive assay for CCRIS tumor promotion studies.

## O=[As]O
Carcinogen: UV RADIATION 3X A WK FOR 6 MO STARTING 3 WKS AFTER ARSENITE, Doses [Promoter]: 5.0 MG/L STARTING AT 3 WKS OF AGE (STUDY DURATION: 28 WKS), Route [Carcinogen]: DERMAL, Route [Promoter]: DRINKING WATER, Species: MOUSE, Strain/Sex: CRL:SK1-HRBD (HAIRLESS)/FEMALE
  outcome: skin: 3.6 tumors/mouse uv alone; 7.0 tumors/mouse uv and arsenite
Carcinogen: UV-B IRRADIATION (WESTINGHOUSE SOLAR FS-20 LAMP 85% IN 290-320 NM RANGE), Doses [Carcinogen]: 1.7 KJ/SQ M 3/WK FOR 182 D BEGINNING 3 WK POST PROMOTER FIRST DOSE, Doses [Promoter]: 0, 10 MG/L IN DRINKING WATER BEGINNING AT 21 D AFTER BIRTH (STUDY DURATION: 203 D), Route [Carcinogen]: DERMAL, Route [Promoter]: ORAL, Species: MOUSE, Strain/Sex: SKH/FEMALE
  outcome: skin: squamous cell carcinoma

## Nc1nc2ncc(CNc3ccc(C(=O)N[C@@H](CCC(=O)O)C(=O)O)cc3)nc2c(=O)[nH]1
Carcinogen: N-ETHYL-N-(2-HYDROXYETHYL)NITROSAMINE, Doses [Carcinogen]: 0.1% IN DRINKING WATER FOR 1 WK, Doses [Promoter]: 300 MG/KG 1/WK FOR 8 WK THEN 100 MG/KG 1/WK FOR 27 WK, Route [Carcinogen]: ORAL, Route [Promoter]: SUBCUTANEOUS, Species: RAT, Strain/Sex: F344/MALE
  outcome: kidney: renal cell tumor

## COc1cccc(O)c1O
Carcinogen: DIETHYLNITROSAMINE, 55-18-5, N-METHYL-N-NITROSOUREA, 684-93-5, 1,2-DIMETHYLHYDRAZINE, 540-73-8, N-BUTYL-N-(4-HYDRO, Carcinogen: DIETHYLNITROSAMINE, 55-18-5, N-METHYL-N-NITROSOUREA, 684-93-5, 1,2-DIMETHYLHYDRAZINE, 540-73-8, N-BUTYL-N-(4-HYDRO, Doses [Carcinogen]: 100 MG/KG BW DEN ONCE THEN 20 MG/KG BW MNU 1/D FOR 4 D FOLLOWED BY 40 MG/KG BW DMH 1/D FOR 4 D, 0.05% BHBN IN DRINKING W, Doses [Promoter]: 0, 2% IN DIET FOR 24 WK BEGINNING 3 D POST CARCINOGEN TREATMENT (STUDY DURATION: 28 WK), Route [Carcinogen]: INTRAPERITONEAL, INTRAPERITONEAL, SUBCUTANEOUS, ORAL, Route [Carcinogen]: INTRAPERITONEAL, INTRAPERITONEAL, SUBCUTANEOUS, ORAL, Route [Promoter]: ORAL, Species: RAT, Strain/Sex: F344/MALE
  outcome: forestomach: papilloma, squamous cell carcinoma or carcinoma in situ; glandular

## Cn1cnc([N+](=O)[O-])c1Sc1ncnc2nc[nH]c12
Carcinogen: UV IRRADIATION, Doses [Carcinogen]: 0.53 J/CM2 INCREASED BY 20% EVERY 2 WK TO 1.60 J/CM2 AND MAINTAINED AT 1.60 J/CM2 UNTIL DEATH, ADMINISTERED 5 D/WK FOR 1, Doses [Promoter]: 0, 15 UG/G BEGINNING 2 WK POST FIRST CARCINOGEN DOSE ADMINISTERED 2 HR PRIOR TO EACH CARCINOGEN DOSE (STUDY DURATION: 30, Route [Carcinogen]: DERMAL, Route [Promoter]: INTRAPERITONEAL, Species: MOUSE, Strain/Sex: SKH/HRL/FEMALE
  outcome: skin: tumor

## N#CS
Carcinogen: N-BIS(2-HYDROXYPROPYL)NITROSAMINE, 53609-64-6, Doses [Carcinogen]: 280 MG/100 G/BW ONCE, Doses [Promoter]: 0, 0.5% IN DRINKING WATER FOR 25 WK (STUDY DURATION: 26 WK), Route [Carcinogen]: SUBCUTANEOUS, Route [Promoter]: ORAL, Species: RAT, Strain/Sex: F344/MALE
  outcome: thyroid: neoplasm

## COC[C@@H]([C@H](O)[C@H](O)C(=O)NCC[C@H](C)c1nc(/C=C/C[C@@H]2O[C@]3(C[C@@H](O)[C@@H]2C)O[C@H]([C@H](C[C@H](O)[C@H](C)[C@H](O)[C@H](C)/C=C(C)/C(C)=C/C=C/C(C)=C\C#N)OC)[C@H](OP(=O)(O)O)C3(C)C)co1)N(C)C
Carcinogen: 7,12-DIMETHYLBENZ[A]ANTHRACENE, 57-97-6, Doses [Carcinogen]: 100 UG IN 0.1 ML ACETONE TO THE DORSAL SKIN ONCE, Doses [Promoter]: 0, 0.1, 1 UG IN 0.1 ML ACETONE TO THE DORSAL SKIN 2/WK FOR 29 WK BEGINNING 1 WK POST CARCINOGEN DOSE (STUDY DURATION: 30, Doses [Promoter]: 0, 0.1, 1 UG IN 0.1 ML ACETONE TO THE DORSAL SKIN 2/WK FOR 29 WK BEGINNING 1 WK POST CARCINOGEN DOSE (STUDY DURATION: 30, Route [Carcinogen]: DERMAL, Route [Promoter]: DERMAL, Species: MOUSE, Strain/Sex: CD-1/FEMALE
  outcome: skin: papilloma

## CCCCC(CC)COC(=O)c1ccccc1C(=O)OCC(CC)CCCC (stereo unspecified)
Carcinogen: DIETHYLNITROSAMINE [55-18-5], Doses [Carcinogen]: 200 MG/KG BW ONCE (STUDY DURATION: 48 WK), Doses [Promoter]: 0, 30, 300, 3000, 12000 PPM IN DIET FOR 46 WK BEGINNING 2 WK POST CARCINOGEN DOSE AND 1 WK PRIOR TO 2/3 PARTIAL HEPATECT, Doses [Promoter]: 0, 30, 300, 3000, 12000 PPM IN DIET FOR 46 WK BEGINNING 2 WK POST CARCINOGEN DOSE AND 1 WK PRIOR TO 2/3 PARTIAL HEPATECT, Route [Carcinogen]: INTRAPERITONEAL, Route [Promoter]: ORAL, Species: RAT, Strain/Sex: F344/MALE
  outcome: liver: hepatocellular adenoma
Carcinogen: DIETHYLNITROSAMINE [55-18-5], Doses [Carcinogen]: 200 MG/KG BW ONCE (STUDY DURATION: 52 WK), Doses [Promoter]: 0, 30, 300, 3000, 12000 PPM IN DIET FOR 46 WK BEGINNING 2 WK POST CARCINOGEN DOSE AND 1 WK PRIOR TO 2/3 PARTIAL HEPATECT, Doses [Promoter]: 0, 30, 300, 3000, 12000 PPM IN DIET FOR 46 WK BEGINNING 2 WK POST CARCINOGEN DOSE AND 1 WK PRIOR TO 2/3 PARTIAL HEPATECT, Route [Carcinogen]: INTRAPERITONEAL, Route [Promoter]: ORAL, Species: RAT, Strain/Sex: F344/MALE
  outcome: liver: hepatocellular adenoma or carcinoma
Carcinogen: N-ETHYL-N-HYDROXYETHYLNITROSAMINE, 13147-25-6, Doses [Carcinogen]: 0.05% IN DRINKING WATER FOR 2 WK, Doses [Promoter]: 0, 1.2% IN DIET FOR 24 WK POST CARCINOGEN DOSE (STUDY DURATION: 27 WK), Route [Carcinogen]: ORAL, Species: RAT, Strain/Sex: F344/MALE
  outcome: kidney: renal cell tumor
Carcinogen: N-NITROSODIETHYLAMINE, 55-18-5, Doses [Carcinogen]: 5 UG/G BW ONCE AT 15 D OF AGE, Doses [Promoter]: 0, 12000 PPM IN DIET BEGINNING AT 4 WK OF AGE AND CONTINUING FOR DURATION OF STUDY (STUDY DURATION: 28 WK), Route [Carcinogen]: INTRAPERITONEAL, Route [Promoter]: ORAL, Species: MOUSE, Strain/Sex: C3H/HENCR/FEMALE
  outcome: liver: hepatocellular adenoma
Carcinogen: N-NITROSODIETHYLAMINE, 55-18-5, Doses [Carcinogen]: 5 UG/G BW ONCE AT 15 D OF AGE, Doses [Promoter]: 0, 12000 PPM IN DIET BEGINNING AT 4 WK OF AGE AND CONTINUING FOR DURATION OF STUDY (STUDY DURATION: 28 WK), Route [Carcinogen]: INTRAPERITONEAL, Route [Promoter]: ORAL, Species: MOUSE, Strain/Sex: C3H/HENCR/MALE
  outcome: liver: hepatocellular adenoma
Carcinogen: N-NITROSODIETHYLAMINE, 7119-92-8, Doses [Carcinogen]: 80 MG/KG ONCE, Doses [Promoter]: 0, 3000 PPM IN DIET BEGINNING 1 WK POST CARCINOGEN DOSE AND CONTINUING FOR 168 D (STUDY DURATION: 259 D), Route [Carcinogen]: INTRAPERITONEAL, Route [Promoter]: ORAL, Species: MOUSE, Strain/Sex: B6C3F1/MALE
  outcome: liver: hepatocellular adenoma

## O=c1c(O)c(-c2ccc(O)c(O)c2)oc2cc(O)cc(O)c12
Carcinogen: N-ETHYL-N'-NITRO-N-NITROSOGUANIDINE, 4245-77-6, Doses [Carcinogen]: 0.01% IN DRINKING WATER FOR 4 WK PRIOR TO PROMOTER DOSES, Doses [Promoter]: 2% IN DIET FOR 16 WK (STUDY DURATION: 20 WK), Route [Carcinogen]: ORAL, Route [Promoter]: ORAL, Species: MOUSE, Strain/Sex: C57BL6/MALE
  outcome: duodenum: tumor

## COc1c2occc2cc2ccc(=O)oc12
Carcinogen: 4-(Methylnitrosamino)-1-(3-pyridyl)-1-butanone (NNK), 64091-91-4, Doses [Carcinogen]: Once, 2 mg/0.1 ml saline/mouse on first day, study duration 32 wks, Doses [Carcinogen]: Once, 2 mg/0.1 ml saline/mouse on first day, study duration 32 wks, Doses [Promoter]: 100 ppm in diet from wks 2-16, study duration 32 wks, Route [Carcinogen]: Intraperitoneal, Route [Promoter]: Oral, Species: Mouse, Strain/Sex: A/J/Female
  outcome: lung: adenoma (2.15 vs 1.54, not significant)
Carcinogen: 4-(Methylnitrosamino)-1-(3-pyridyl)-1-butanone (NNK), 64091-91-4, Doses [Carcinogen]: Once, 2 mg/0.1 ml saline/mouse on first day, study duration 32 wks, Doses [Carcinogen]: Once, 2 mg/0.1 ml saline/mouse on first day, study duration 32 wks, Doses [Promoter]: 100 ppm in diet from wks16-32, study duration 32 wks, Route [Carcinogen]: Intraperitoneal, Route [Promoter]: Oral, Species: Mouse, Strain/Sex: A/J/Female
  outcome: lung: adenoma and adenocarcinoma (7.31 vs 6.78, not significant)
